Consider 8 compounds from patent US8741806B2, “Herbicides” (Syngenta Limited, priority 2009, dated 2014).

What all share (assay type): in vivo
Assay [1] concerns Alopecurus myosuroides (ALOMY). Put plainly: Example B pre-emergence herbicidal activity, glasshouse pot test. To be noted: 312 h, rate 250 g/ha, evaluated after 13 days, scale 0-100, read-out: Pre-emergence activity ALOMY (100=total damage to plant; 0=no damage to plant). As to the method:
(§1) Seeds of a variety of test species were sown in standard soil in pots. After cultivation for one day (pre-emergence) or after 8 days cultivation (post-emergence) under controlled conditions in a glasshouse (at 24/16° C., day/night; 14 hours light; 65% humidity), the plants were sprayed with an aqueous spray solution derived from the formulation of the technical active ingredient of formula I in acetone/water (50:50) solution containing 0.5% Tween 20 (polyoxyethelyene sorbitan monolaurate, CAS RN 9005-64-5). The test plants were then grown in a glasshouse under controlled conditions in a glasshouse (at 24/16° C., day/night; 14 hours light; 65% humidity) and watered twice daily. After 13 days for pre and post-emergence, the test was evaluated (100=total damage to plant; 0=no damage to plant). Setaria faberi (SETFA), Lolium perenne (LOLPE), Alopecurus myosuroides (ALOMY), Echinochloa crus-galli (ECHCG), and Avena fatua (AVEFA). Pre-Emergence Activity

The test system of assay [2] is Avena fatua (AVEFA). The description is as above. To be noted: 312 h, rate 250 g/ha, evaluated after 13 days, scale 0-100, read-out: Pre-emergence activity AVEFA (100=total damage to plant; 0=no damage to plant). As to the method:
as §1

Assay [3] deals with Echinochloa crus-galli (ECHCG). Described as above. To be noted: 312 h, rate 250 g/ha, evaluated after 13 days, scale 0-100, read-out: Pre-emergence activity ECHCG (100=total damage to plant; 0=no damage to plant). As to the method:
as §1

Assay [4] relates to Lolium perenne (LOLPE). Described as above. To be noted: 312 h, rate 250 g/ha, evaluated after 13 days, scale 0-100, read-out: Pre-emergence activity LOLPE (100=total damage to plant; 0=no damage to plant). As to the method: as §1
Assay [5] deals with Alopecurus myosuroides (ALOMY). As to the kind of experiment: Example B post-emergence herbicidal activity, glasshouse pot test. Conditions: 312 h, rate 250 g/ha, evaluated after 13 days, scale 0-100, read-out: Post-emergence activity ALOMY (100=total damage to plant; 0=no damage to plant). As to the method: as §1, with “Post-Emergence” for “Pre-Emergence”
Assay [6] concerns Avena fatua (AVEFA). The description is as above. To be noted: 312 h, rate 250 g/ha, evaluated after 13 days, scale 0-100, read-out: Post-emergence activity AVEFA (100=total damage to plant; 0=no damage to plant). As to the method:
as §1, with “Post-Emergence” for “Pre-Emergence”

Assay [7] relates to Echinochloa crus-galli (ECHCG). Described as above. To be noted: 312 h, rate 250 g/ha, evaluated after 13 days, scale 0-100, read-out: Post-emergence activity ECHCG (100=total damage to plant; 0=no damage to plant). As to the method: as §1, with “Post-Emergence” for “Pre-Emergence”
For assay [8], the system named is Lolium perenne (LOLPE). Described as above. Conditions: 312 h, rate 250 g/ha, evaluated after 13 days, scale 0-100, read-out: Post-emergence activity LOLPE (100=total damage to plant; 0=no damage to plant). As to the method: as §1, with “Post-Emergence” for “Pre-Emergence”

For the compound `CCc1ccc(-c2ccc(Cl)c(F)c2)cc1C1=C(O)CC(C)(C)CC1=O` [Compound T33], the pest or weed control at 250 g/ha was found to be 0% in assay [1]; 20% with Avena fatua (AVEFA) [2]; 90% in assay [3]; 90% in the assay with Lolium perenne (LOLPE) [4]; 100% in assay [5]; 80% in the assay on Avena fatua (AVEFA) [6]. Further, the pest or weed control at 250 g/ha (in assay [7]; in the assay on Lolium perenne (LOLPE) [8]) was 100% in each case.
Take `CCc1ccc(-c2ccc(Cl)s2)cc1C1=C(O)CCCC1=O` [Compound T55]: the pest or weed control at 250 g/ha in assay [1] amounted to 20%; in the assay on Avena fatua (AVEFA) [2], 0%; in assay [3], 40%; with Lolium perenne (LOLPE) [4], 20%; in assay [5] it was 40%; in the assay on Avena fatua (AVEFA) [6], 10%. Moreover, the pest or weed control at 250 g/ha worked out at 100% in assay [7] and 60% in the assay on Lolium perenne (LOLPE) [8].
`CCc1ccc(-c2ccc(Cl)c(Cl)c2)cc1C1=C(O)C(C)(C)CC(C)(C)C1=O` [Compound T67]: the pest or weed control at 250 g/ha was found to be 10% in assay [1]; 0% with Avena fatua (AVEFA) [2]; 60% in assay [3]; 10% with Lolium perenne (LOLPE) [4]; 20% in assay [5]; 20% in the assay with Avena fatua (AVEFA) [6]. Besides, the pest or weed control at 250 g/ha in assay [7] stood at 80%; in the assay on Lolium perenne (LOLPE) [8], 40%.
For the compound `CCc1ccc(-c2c(F)cc(Cl)cc2F)cc1C1=C(O)CC(C)(C)CC1=O` [Compound T28], the pest or weed control at 250 g/ha stood at 20% in assay [1]; 40% in the assay with Avena fatua (AVEFA) [2]; 100% in assay [3]; 90% in the assay with Lolium perenne (LOLPE) [4]; 30% in assay [5]; 50% with Avena fatua (AVEFA) [6]. Moreover, the pest or weed control at 250 g/ha (in assay [7]; with Lolium perenne (LOLPE) [8]) was 100% in each case.
Turning to `CCc1ccc(-c2ccc(Cl)cc2Cl)cc1C1=C(O)C(C)(C)CC(C)(C)C1=O` [Compound T61], the pest or weed control at 250 g/ha in assay [1] turned out to be 20%; with Avena fatua (AVEFA) [2], 50%; in assay [3], 90%; in the assay on Lolium perenne (LOLPE) [4], 70%; in assay [5] it was 10%; with Avena fatua (AVEFA) [6], 30%. For the same compound, the pest or weed control at 250 g/ha turned out to be 90% in assay [7] and 40% in the assay on Lolium perenne (LOLPE) [8].
As for `CCc1ccc(-c2ccc(Cl)cc2)cc1C1=C(O)C(C)(C)CC(C)(C)C1=O` [Compound T69], the pest or weed control at 250 g/ha in assay [1] came out at 10%; in the assay on Avena fatua (AVEFA) [2], 0%; in assay [3] it was 90%; in the assay with Lolium perenne (LOLPE) [4], 90%; in assay [5], 20%; with Avena fatua (AVEFA) [6], 40%. Moreover, the pest or weed control at 250 g/ha (in assay [7]; with Lolium perenne (LOLPE) [8]) was 100% in each case.
Regarding `CCc1ccc(-c2ccc(Cl)c(F)c2F)cc1C1=C(O)C(C)(C)CC(C)(C)C1=O` [Compound T62], the pest or weed control at 250 g/ha in assay [1] turned out to be 60%; in the assay on Avena fatua (AVEFA) [2] it was 50%; in assay [3] it was 90%; with Lolium perenne (LOLPE) [4], 90%; in assay [5], 60%; in the assay with Avena fatua (AVEFA) [6], 80%. The pest or weed control at 250 g/ha (in assay [7]; in the assay on Lolium perenne (LOLPE) [8]) was 80% each time.
As for `CCc1ccc(-c2ccc(Cl)c(F)c2Cl)cc1C1=C(O)C(C)(C)CCC1=O` [Compound T15], the pest or weed control at 250 g/ha worked out at 0% in assay [1]; 0% with Avena fatua (AVEFA) [2]; 100% in assay [3]; 90% in the assay with Lolium perenne (LOLPE) [4]; 0% in assay [5]; 40% with Avena fatua (AVEFA) [6]. Besides, the results for the pest or weed control at 250 g/ha (in assay [7]; in the assay with Lolium perenne (LOLPE) [8]) were 100% and 50%, respectively.
